This note sets out measurements from US9487553B2, “Boranophosphate analogues of cyclic nucleotides” (BIOLOG LIFE SCIENCE INSTITUTE FORSCHUNGSLABOR UND …, priority 2011, dated 2016).

One data set relates to PDE 1 from bovine heart. In words: Resistance towards phosphodiesterase: incubation with PDE 1 from bovine heart, HPLC. As for the experimental part:
For this purpose 0.1 μmol of Rp-8-bromoadenosine-3′,5′-cyclic boranophosphate (example 1) and Sp-8-bromoadenosine-3′,5′-cyclic boranophosphate […] dissolved in TRIS buffer pH 7.2 containing calcium chloride and calmodulin and incubated with PDE type I from bovine brain (Sigma-Aldrich) at 37° C. Activity of the enzyme was checked by hydrolysis of cyclic AMP. Stability was monitored by HPLC (RP-18, 11 Vol.-% propanol-2, 20 mM TEAF buffer, pH 6.8, 1 ml/min., UV 264 nm). […] This strategy of testing PDE performance was applied accordingly in degradation examples 10 and 11.
Thus, Rp-8-Br-cAMPB (example 1) and Sp-8-Br-cAMPS (Biolog, Bremen/Germany) were incubated with PDE 1 from bovine heart (Sigma-Aldrich) and monitored by HPLC as described above.
Rp-2′-O-Me-cAMPB (example 7) and Sp-2′-O-Me-cAMPS (Biolog, Bremen/Germany).

A further data set concerns the target T1, bovine CNGA2 channels (Bos taurus, UniProt Q03041).
T1 construct: expressed in transfected cells; host or cells: Xenopus laevis oocytes (cRNA injection; inside-out membrane patches)
T1 sequence (Q03041 1-663): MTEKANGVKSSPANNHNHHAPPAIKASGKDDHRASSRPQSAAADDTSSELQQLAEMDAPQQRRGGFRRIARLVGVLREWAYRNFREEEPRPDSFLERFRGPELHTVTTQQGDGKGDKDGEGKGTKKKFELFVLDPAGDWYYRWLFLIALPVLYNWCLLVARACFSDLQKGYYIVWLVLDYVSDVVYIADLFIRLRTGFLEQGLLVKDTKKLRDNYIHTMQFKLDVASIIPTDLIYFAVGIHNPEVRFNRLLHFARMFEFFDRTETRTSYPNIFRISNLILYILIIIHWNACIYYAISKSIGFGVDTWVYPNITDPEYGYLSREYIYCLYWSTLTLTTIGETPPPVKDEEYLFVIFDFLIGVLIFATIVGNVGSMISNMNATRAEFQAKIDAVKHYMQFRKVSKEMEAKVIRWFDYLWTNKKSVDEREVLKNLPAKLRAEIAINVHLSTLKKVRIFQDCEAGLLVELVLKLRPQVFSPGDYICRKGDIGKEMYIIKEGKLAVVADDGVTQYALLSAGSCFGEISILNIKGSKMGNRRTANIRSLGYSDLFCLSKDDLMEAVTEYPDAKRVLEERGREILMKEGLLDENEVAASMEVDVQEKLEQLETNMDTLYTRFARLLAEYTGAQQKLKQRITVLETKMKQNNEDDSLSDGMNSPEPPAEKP
In words: Patch-clamp of inside-out oocyte membrane patches with olfactory CNGA2 channels. The data set is classed as cell-based. The conditions noted are these: for current, % of its maximal value: 500 μM compound, maximal value at 500 μM cAMP, n=3; for inhibition of channel activation by cAMP: applied in the presence of cAMP; for current amplitude, % of the amplitude observed in the absence of the compound: 50 μM cAMP, 50 μM compound, n=9. An excerpt:
Next, the effects of cyclic nucleotide boranophosphates, disclosed in this invention, on olfactory cyclic nucleotide-gated ion channels in clamps of oocyte cell membrane patches were investigated.
For the experiments, oocytes were obtained and prepared as described previously (Biskup, C. et al., Nature 446, 440-443 (2007)). In brief, oocytes were obtained by partial ovariectomy from adult females of Xenopus laevis anaesthesized with 0.3% 3-aminobenzoic acid ethyl ester (Sigma). The oocytes were treated for 60-90 min with 1.2 mg/ml collagenase (Type I, Sigma) and separated manually. 40-70 nl of a solution containing cRNA encoding bovine CNGA2 channels (accession No. X55010) was injected, and the oocytes were incubated at 18° C. in Barth medium until they were used for the experiments within 3-6 days after injection. Immediately prior to the experiments the vitelline membrane of the oocytes was removed.
Currents were recorded in inside-out patches with the patch-clamp technique. The patch pipettes were pulled from quartz tubing (outer diameter 1.0 mm, inner diameter 0.7 mm) using a laser puller (P-2000, Sutter Instrument, Novato, Calif.). The pipette resistance was 0.8-2.5 MΩ. Recording was performed with an Axopatch 200B amplifier (Molecular Devices, Sunnyvale, Calif.). All experiments were performed with the same recording solution in the bath and the pipette containing (in mM) 150 KCl, 1 EGTA, 5 HEPES. pH was adjusted to 7.4 with KOH.
Measurements were controlled and data were collected with the ISO3 setup (MFK, Niedernhausen, Germany). The sampling rate was 5 kHz (filter 2 kHz). To test for possible background channel activity, each excised patch was first exposed to a solution containing no cyclic nucleotides.
FIGS. 15 A-C depict the agonistic activity of Rp-8-Br-cAMPB on CNGA2 channels. Currents were recorded in a patch containing CNGA2 channels. The patch membrane was clamped subsequently from 0 mV to −50 mV, +50 mV and back to 0 mV. […] (C) Current measured in the presence of 500 μM Rp-8-Br-cAMPB.
FIGS. 16 A-F depict the antagonistic activity of Sp-8-Br-cAMPB on CNGA2 channels. Currents were recorded in a patch containing CNGA2 channels. The patch membrane was clamped subsequently from 0 mV to −50 mV, +50 mV and back to 0 mV.
On the technique in general: Patch clamp records ionic current or voltage across a cell membrane.

For another data set, the target named is T2, PDE IV (A4B) (Homo sapiens, UniProt P27815).
T2 construct: Houslay lab, Glasgow/Scotland (obtained from another laboratory)
T2 sequence (P27815 whole entry): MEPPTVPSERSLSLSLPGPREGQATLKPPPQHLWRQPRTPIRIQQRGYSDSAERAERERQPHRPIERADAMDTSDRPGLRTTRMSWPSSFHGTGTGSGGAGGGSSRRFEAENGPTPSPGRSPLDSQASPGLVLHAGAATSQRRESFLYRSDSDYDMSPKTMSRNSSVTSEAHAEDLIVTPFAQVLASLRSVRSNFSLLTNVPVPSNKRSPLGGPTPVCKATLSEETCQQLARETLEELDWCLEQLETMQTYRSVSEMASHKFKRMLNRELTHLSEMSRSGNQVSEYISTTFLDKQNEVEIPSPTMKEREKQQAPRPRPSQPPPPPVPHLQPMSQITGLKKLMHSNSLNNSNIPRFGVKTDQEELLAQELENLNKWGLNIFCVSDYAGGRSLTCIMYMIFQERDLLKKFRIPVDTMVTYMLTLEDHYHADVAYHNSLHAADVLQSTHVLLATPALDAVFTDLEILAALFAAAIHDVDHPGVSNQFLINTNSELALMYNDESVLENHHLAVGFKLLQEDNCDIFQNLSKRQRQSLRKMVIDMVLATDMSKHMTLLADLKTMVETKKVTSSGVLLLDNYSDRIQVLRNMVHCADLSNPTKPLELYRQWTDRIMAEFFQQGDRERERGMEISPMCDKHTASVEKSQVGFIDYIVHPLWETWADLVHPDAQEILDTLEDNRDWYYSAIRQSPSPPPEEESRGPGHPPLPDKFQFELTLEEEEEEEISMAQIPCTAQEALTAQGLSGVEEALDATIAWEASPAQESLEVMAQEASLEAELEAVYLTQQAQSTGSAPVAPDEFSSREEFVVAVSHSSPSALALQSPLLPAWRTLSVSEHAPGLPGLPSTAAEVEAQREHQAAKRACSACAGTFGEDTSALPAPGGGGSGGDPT
In words: Stability against PDE IV, HPLC. The data set is classed as in vitro ADME. As to conditions: several days. Here is the method: Next, stability of the disclosed boranophosphates against PDE IV (A4B, Houslay lab, Glasgow/Scotland) was tested in similar experiments as described above.

For data set [1], the target named is protein kinase A type II alpha holoenzyme (Homo sapiens, UniProt P13861). In words: Photometric (Cook) assay with protein kinase A type II alpha holoenzyme. The data set is classed as biochemical. The conditions noted are these: for effect on protein kinase A type II alpha holoenzyme: photometric assay. An excerpt: In another similar experiment the properties of Rp- and Sp-8-Br-cAMPB towards protein kinase A type II a were investigated in the photometric assay (Cook, P. F., Neville, M. E., Jr., Vrana, K. E., Hartl, F. T. and Roskoski, R., Jr., Biochemistry 21, 5794-5799 (1982))
Sequence of protein kinase A type II alpha holoenzyme (P13861 whole entry): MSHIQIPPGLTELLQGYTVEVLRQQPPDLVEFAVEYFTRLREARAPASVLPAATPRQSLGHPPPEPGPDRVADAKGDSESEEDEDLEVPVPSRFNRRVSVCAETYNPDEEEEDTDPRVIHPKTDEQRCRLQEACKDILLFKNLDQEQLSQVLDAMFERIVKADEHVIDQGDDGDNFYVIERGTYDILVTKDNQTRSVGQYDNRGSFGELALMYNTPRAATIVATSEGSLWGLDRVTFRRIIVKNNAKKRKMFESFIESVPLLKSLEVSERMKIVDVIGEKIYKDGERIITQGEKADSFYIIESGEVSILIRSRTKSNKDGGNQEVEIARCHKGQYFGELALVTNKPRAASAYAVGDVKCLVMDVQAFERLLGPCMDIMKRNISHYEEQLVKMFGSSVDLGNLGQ

Data set [2] has as its system PDE type I from bovine brain. In words: Resistance towards phosphodiesterase: incubation with PDE type I from bovine brain, HPLC. Here is the method: Activity of the enzyme was checked by hydrolysis of cyclic AMP. Stability was monitored by HPLC (RP-18, 11 Vol.-% propanol-2, 20 mM TEAF buffer, pH 6.8, 1 ml/min., UV 264 nm).

For “8-Bromoadenosine-3′,5′-cyclic boranophosphate, Rp-isomer [Rp-8-Br-cAMPB]”, the “degradation by PDE” value in the data set on PDE 1 from bovine heart is on record as “completely stable”. For the same substance, the “current, % of its maximal value” at bovine CNGA2 channels (+50 mV) is 14±4%; on bovine CNGA2 channels (−50 mV, mean±SEM) it was 7±1%. The “inhibition of channel activation by cAMP” value at bovine CNGA2 channels is “does not inhibit channel activation by cAMP”. Besides, the “stability against PDE IV” value on PDE IV (A4B) is “completely stable”. Moreover, in data set [1], the “effect on protein kinase A type II alpha holoenzyme” value is “even higher activation potential”.
“8-Bromoadenosine-3′,5′-cyclic boranophosphate, Sp-isomer [Sp-8-Br-cAMPB]”: the “current amplitude, % of the amplitude observed in the absence of the compound” value on bovine CNGA2 channels (+50 mV) is listed as 48±11%; on bovine CNGA2 channels (−50 mV), 34±9%. Also, at bovine CNGA2 channels, the “inhibition of channel activation by cAMP” value is “competitive antagonist”. The “intrinsic activity on CNGA2 channels” value on bovine CNGA2 channels (up to 100 μM, absence of cAMP) is recorded as “did not show any intrinsic activity”. Moreover, the “degradation by PDE” value in data set [2] is “no degradation was detected”. The “preference for protein kinase A type I over type II, factor” value in data set [1] (antagonist) is given as 14. In addition, the “effect on protein kinase A type II alpha holoenzyme” value in data set [1] was “only moderately antagonistic”.
